From US20080269213A1, “8-Hydroxyquinoline compounds and methods thereof” (Wyeth, priority 2006, published 2008)
Several values for one entry are separate records, joined by “and”; a condition that tells them apart may be missing. Equal values may be shown once. Read-outs that look alike come from different tables or passages of the source.

Experiments:
[1] = biological target: T1, recombinant human Aggrecanase-2 Agg2-Phe628 (Homo sapiens, UniProt Q9UNA0); experiment: Aggrecanase 2 in vitro enzyme assay (Agg-2 FRET, quenched fluorescent peptide substrate); format: biochemical; design: purified recombinant human Aggrecanase-2 Agg2-Phe628 (MW=41,737); This is a truncated form of full-length human aggrecanase-2; made in house; host or cells: CHO cells; details: for Agg-2 FRET Median PCT INHIB: concentration not given
T1 sequence (Q9UNA0 262-628 limits assumed): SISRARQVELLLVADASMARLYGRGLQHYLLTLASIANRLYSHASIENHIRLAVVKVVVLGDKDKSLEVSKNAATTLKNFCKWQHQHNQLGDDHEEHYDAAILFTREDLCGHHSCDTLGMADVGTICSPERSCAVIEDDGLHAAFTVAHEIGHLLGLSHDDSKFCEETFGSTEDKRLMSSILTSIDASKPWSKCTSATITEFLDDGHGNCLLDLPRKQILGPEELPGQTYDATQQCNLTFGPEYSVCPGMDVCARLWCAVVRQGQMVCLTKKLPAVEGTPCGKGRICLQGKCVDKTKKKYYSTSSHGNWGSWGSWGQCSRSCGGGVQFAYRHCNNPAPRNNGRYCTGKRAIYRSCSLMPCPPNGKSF
Summary of the method: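 Continuous FRET assay with purified truncated human Aggrecanase-2 Agg2-Phe628 (CHO-expressed, 0.5 μg/ml final) and brevican-derived Abz/Dnp peptide (25 μM final) in 50 mM HEPES pH 7.5, 100 mM NaCl, 5 mM CaCl2, 0.1% CHAPS, 5% glycerol. Enzyme preincubated with compound before substrate; fluorescence (ex 340/em 420 nm) followed kinetically 40 min at 30 °C.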

[2] = biological target: T2, Agg-1 (Homo sapiens, UniProt O75173); experiment: Agg-1 FRET assay; format: biochemical; details: for inhibition at 22.2 µM: @ 22200 nM; for inhibition at 67 µM: @ 67000 nM
T2 sequence (O75173 213-837): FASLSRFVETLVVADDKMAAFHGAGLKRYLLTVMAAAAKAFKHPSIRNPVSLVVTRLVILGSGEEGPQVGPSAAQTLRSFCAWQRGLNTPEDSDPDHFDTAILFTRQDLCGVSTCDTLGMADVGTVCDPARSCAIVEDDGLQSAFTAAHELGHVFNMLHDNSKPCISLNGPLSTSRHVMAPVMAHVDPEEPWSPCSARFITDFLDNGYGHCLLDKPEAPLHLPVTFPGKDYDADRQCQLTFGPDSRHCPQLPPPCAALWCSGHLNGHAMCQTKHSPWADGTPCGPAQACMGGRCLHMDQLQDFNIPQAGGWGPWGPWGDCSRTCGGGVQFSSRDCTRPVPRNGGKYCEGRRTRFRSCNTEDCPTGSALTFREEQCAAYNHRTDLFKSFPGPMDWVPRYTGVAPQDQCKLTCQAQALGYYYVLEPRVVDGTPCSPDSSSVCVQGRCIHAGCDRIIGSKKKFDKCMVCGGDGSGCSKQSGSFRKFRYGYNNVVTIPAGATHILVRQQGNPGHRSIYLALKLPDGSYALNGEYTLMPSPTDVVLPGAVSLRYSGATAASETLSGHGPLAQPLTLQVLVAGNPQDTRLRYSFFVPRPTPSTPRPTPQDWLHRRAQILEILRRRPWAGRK
Description: The Agg-1/Agg-2 FRET data for N-[(8-hydroxyquinolin-2-yl)(phenyl)methyl]-2-phenoxyacetamide and 2-{[(phenoxyacetyl)amino](phenyl)methyl}quinolin-8-yl phenoxyacetate is presented in Table 1.

[3] = read-out: Agg-2 FRET Median IC50

| SMILES | IC50 ([1]; read-out: Agg2 IC50) [µM] | IC50 ([2]; read-out: Agg1 IC50) [µM] | other results |
| --- | --- | --- | --- |
| O=C(COc1ccc2c(c1)OCO2)NC(c1ccccc1Cl)c1cc(Cl)c2cccnc2c1O (centres unmarked) [Example 221, 2-(1,3-benzodioxol-5-yloxy)-N-[(5-chloro-8-hydroxyquinolin-7-yl)(2-chlorophenyl)methyl]acetamide] | 1 | 7.4 to 20 | – |
| O=C(COc1ccccc1)NC(c1cc2n(n1)CSC2)c1cc(Cl)c2cccnc2c1O (centres unmarked) [Example 174, N-[(5-chloro-8-hydroxyquinolin-7-yl)(4H-pyrazolo[1,5-c][1,3]thiazol-2-yl)methyl]-2-phenoxyacetamide] | – | – | inhibition at […] ([1]; @ 1900 nM): 40%; Agg1 % ([2]; @ 7000-22000 nM): 42% @ 7000-22000 |
| O=C(COc1ccccc1)NC(c1cc(Cl)c2cccnc2c1O)c1coc2ccccc2c1=O (centres unmarked) [N-[(5-chloro-8-hydroxyquinolin-7-yl)(4-oxo-4H-chromen-3-yl)methyl]-2-phenoxyacetamide] | – | ~11 | inhibition at […] ([1]; @ 2500 nM): 72% |
| O=C(COc1ccccc1)NC(c1ccccc1)c1ccc2cccc(OC(=O)COc3ccccc3)c2n1 (centres unmarked) [Example 277, 2-{[(phenoxyacetyl)amino](phenyl)methyl}quinolin-8-yl phenoxyacetate] | – | – | inhibition at 200 µM ([1]; @ 200 (μM), read-out: Agg-2 FRET % (printed in FRET IC50 column)): 52%; IC50 ([2]; read-out: FRET IC50 Agg-1): 4 µM |
| COc1ccc(C(NC(=O)Cc2ccccc2)c2cc(Cl)c3cccnc3c2O)cc1OCc1ccccc1 (centres unmarked) [N-[[3-(benzyloxy)-4-methoxyphenyl](5-chloro-8-hydroxyquinolin-7-yl)methyl]-2-phenylacetamide] | – | – | inhibition at […] ([1]; @ 1200 nM): 47%; inhibition at […] ([2]; @ 1200 nM, read-out: Agg1 %): 36% |
| C/C=C/C(NC(=O)COc1ccccc1)c1cc(Cl)c2cccnc2c1O (centres unmarked) [Example 187, N-[(2E)-1-(5-chloro-8-hydroxyquinolin-7-yl)but-2-en-1-yl]-2-phenoxyacetamide] | 2.53 | – | IC50 [1, 3]: 2.53 µM; inhibition at 0.8 µM ([2]; @ 800 nM, read-out: Agg1 %): 40% |
| O=C(COc1ccccc1)NC(c1cc(Cl)c2cccnc2c1O)c1cccc2cc[nH]c12 (centres unmarked) [N-[(5-chloro-8-hydroxyquinolin-7-yl)(1H-indol-7-yl)methyl]-2-phenoxyacetamide] | – | – | inhibition at […] ([1]; @ 1900 nM): 69%; inhibition at 7.4 µM ([2]; @ 7400 nM, read-out: Agg1 %): 48% |
| CN(C)CC(=O)Nc1cccc(C(NC(=O)COc2ccccc2)c2cc(Cl)c3cccnc3c2O)c1 (centres unmarked) [Example 206, N-(3-{(5-chloro-8-hydroxyquinolin-7-yl)[(phenoxyacetyl)amino]methyl}phenyl)-N2,N2-dimethylglycinamide] | 2.9 | 22 to 67 | – |
| O=C(CNCc1ccc2c(c1)OCO2)NC(c1ccccc1Cl)c1cc(Cl)c2cccnc2c1O (centres unmarked) [Example 232, N2-(1,3-benzodioxol-5-ylmethyl)-N-[(5-chloro-8-hydroxyquinolin-7-yl)(2-chlorophenyl)methyl]glycinamide] | 1.8 | 13.7 | – |
| COc1cc(OCC(=O)NC(c2ccccc2)c2cc(Cl)c3cccnc3c2O)cc(OC)c1OC (centres unmarked) [N-[(5-chloro-8-hydroxyquinolin-7-yl)(phenyl)methyl]-2-(3,4,5-trimethoxyphenoxy)acetamide] | 1.8 | – | inhibition at 7.5 µM ([2]; @ 7500 nM, read-out: Agg1 %): 54% |
| Nc1cccc(C(NC(=O)COc2ccccc2)c2cc(Cl)c3cccnc3c2O)c1 (centres unmarked) [Example 202, N-[(3-aminophenyl)(5-chloro-8-hydroxyquinolin-7-yl)methyl]-2-phenoxyacetamide] | 4.59 | > 2 | IC50 [1, 3]: 4.59 µM and 4.36 µM |
| COc1ccc(C(NC(=O)COc2ccccc2)c2cc(Cl)c3cccnc3c2O)cc1OC (centres unmarked) [N-[(5-chloro-8-hydroxyquinolin-7-yl)(3,4-dimethoxyphenyl)methyl]-2-phenoxyacetamide] | – | > 1.5 | IC50 [1, 3]: 1.06 µM and 5.19 µM |
| O=C(CNCc1cccc2ccccc12)NC(c1ccccc1)c1cc(Br)c2cccnc2c1O (centres unmarked) [Example 222, N-[(5-bromo-8-hydroxyquinolin-7-yl)(phenyl)methyl]-N2-(1-naphthylmethyl)glycinamide] | 1.2 to 3.7 | 7.4 to 20 | – |
| O=C(NC(c1ccccn1)c1cc(Cl)c2cccnc2c1O)OCc1ccccc1 (centres unmarked) [Example 183, benzyl [(5-chloro-8-hydroxyquinolin-7-yl)(pyridin-2-yl)methyl]carbamate] | ~2.5 | > 67 | Agg-2 FRET Median PCT INHIB [1]: 50% |
| COc1ccc2cc(C(NC(=O)COc3ccccc3)c3cc(Cl)c4cccnc4c3O)ccc2c1 (centres unmarked) [Example 165, N-[(5-chloro-8-hydroxyquinolin-7-yl)(6-methoxy-2-naphthyl)methyl]-2-phenoxyacetamide] | 2.3 | – | inhibition at 22.2 µM ([2]; read-out: Agg1 %): 50% |
| O=C(CN1CCC(c2ccccc2)CC1)NC(c1ccccc1)c1cc(Cl)c2cccnc2c1O (centres unmarked) [N-[(5-chloro-8-hydroxyquinolin-7-yl)(phenyl)methyl]-2-(4-phenylpiperidin-1-yl)acetamide] | ~3.7 | ~11 | Agg-2 FRET Median PCT INHIB [1]: 57% |
| O=C(COc1ccccc1)NC(c1ccco1)c1cc(Cl)c2cccnc2c1O (centres unmarked) [N-[(5-chloro-8-hydroxyquinolin-7-yl)(2-furyl)methyl]-2-phenoxyacetamide] | 2.43 | – | IC50 [1, 3]: 3.9 µM and 2.43 µM; inhibition at 67 µM ([2]; read-out: Agg1 %): 51% |
| CCc1cccc(OCC(=O)NC(c2ccccc2Cl)c2cc(Cl)c3cccnc3c2O)c1 (centres unmarked) [N-[(5-chloro-8-hydroxyquinolin-7-yl)(2-chlorophenyl)methyl]-2-(3-ethylphenoxy)acetamide] | 1.28 | – | inhibition at 10 µM ([2]; @ 10000 nM, read-out: Agg1 %): 48% |
| O=C(COc1ccccc1)NC(c1cc(Cl)c2cccnc2c1O)c1cc2ccccc2c2ccccc12 (centres unmarked) [N-[(5-chloro-8-hydroxyquinolin-7-yl)(9-phenanthryl)methyl]-2-phenoxyacetamide] | – | – | inhibition at 11 µM ([1]; @ 11000 nM): 51%; inhibition at 33 µM ([2]; @ 33000 nM, read-out: Agg1 %): 54% |
| O=C(COc1ccccc1)NC(c1ccc(-c2ccccc2)cc1)c1cc(Cl)c2cccnc2c1O (centres unmarked) [N-[biphenyl-4-yl(5-chloro-8-hydroxyquinolin-7-yl)methyl]-2-phenoxyacetamide] | 5.4 | > 200 | – |
| O=C(COc1ccccc1)NC(c1ccccc1)c1cc(Br)c2cccnc2c1O (centres unmarked) [N-[(5-bromo-8-hydroxyquinolin-7-yl)(phenyl)methyl]-2-phenoxyacetamide] | 2.48 | – | IC50 [1, 3]: 2.48 µM; inhibition at 22.2 µM ([2]; read-out: Agg1 %): 64% |
| O=C(CNCc1ccccn1)NC(c1ccccc1)c1cc(Cl)c2cccnc2c1O (centres unmarked) [Example 227, N-[(5-chloro-8-hydroxyquinolin-7-yl)(phenyl)methyl]-N2-(pyridin-2-ylmethyl)glycinamide] | 3.87 | > 50 | – |
| O=C(COc1ccccc1)NC(c1ccc(F)cc1)c1cc(Cl)c2cccnc2c1O (centres unmarked) [N-[(5-chloro-8-hydroxyquinolin-7-yl)(4-fluorophenyl)methyl]-2-phenoxyacetamide] | 1.2 | – | inhibition at 67 µM ([2]; read-out: Agg1 %): 48% |
| COc1cc(OC)cc(OCC(=O)NC(c2ccccc2Cl)c2cc(Cl)c3cccnc3c2O)c1 (centres unmarked) [N-[(5-chloro-8-hydroxyquinolin-7-yl)(2-chlorophenyl)methyl]-2-(3,5-dimethoxyphenoxy)acetamide] | 1 | ~22 | – |
| CCN(CC)c1ccc(C(NC(=O)COc2ccccc2)c2cc(Cl)c3cccnc3c2O)cc1 (centres unmarked) [Example 135, N-{(5-chloro-8-hydroxyquinolin-7-yl)[4-(diethylamino)phenyl]methyl}-2-phenoxyacetamide] | 2.8 | 22 to 67 | – |
| CS(=O)(=O)Nc1cccc(C(NC(=O)COc2ccccc2)c2cc(Cl)c3cccnc3c2OS(C)(=O)=O)c1 (centres unmarked) [Example 203, 5-chloro-7-{{3-[(methylsulfonyl)amino]phenyl}[(phenoxyacetyl)amino]methyl}quinolin-8-yl methanesulfonate] | > 30 | > 20 | Agg-2 FRET Median PCT INHIB [1]: 20% |
